Measured values from BindingDB's records for doi:10.1016/j.bmcl.2006.01.061 (Institute of Genomics and Integrative Biology, 2006).
Square brackets hold non-standard residues; d marks the D form. Peptide text beside a SMILES is read from it. Trp(5-OH) = N[C@@H](Cc1c[nH]c2ccc(O)cc12)C(=O)O; NMeW = CN[C@@H](Cc1c[nH]c2ccccc12)C(=O)O; Orn = NCCC[C@H](N)C(=O)O

target: Angiotensin-converting enzyme (Bos taurus); test: Inhibition of ACE in bovine kidney

Row | IC50 | SMILES
1 | 10 µM | CN[C@@H](Cc1c[nH]c2ccccc12)C(=O)N[C@@H](CCCN)C(=O)N1CCC[C@H]1C(=O)O [MTP-Orn-Pro] (H-[NMeW]-[Orn]-Pro-OH)
2 | 4 µM | NCCC[C@H](NC(=O)[C@@H](N)Cc1c[nH]c2ccc(O)cc12)C(=O)N1CCC[C@H]1C(=O)O [HTP-Orn-Pro] (H-[Trp(5-OH)]-[Orn]-Pro-OH)
3 | 10 µM | NCCC[C@H](NC(=O)CCc1nc2ccccc2[nH]1)C(=O)N1CCC[C@H]1C(=O)O [BPA-Lys-Pro]
